Substitutions are numbered along the chain they refer to. Where two headings read alike, the source gives them in different places.
What was measured:
[1] = target: T1, androgen receptor in MDA-MB453-MMTV clone 54-19 cells (Homo sapiens, UniProt P10275); test: AR antagonist cell assay (MMTV-luciferase reporter); assay type: cell-based
T1 sequence (P10275 1-920 Q868H): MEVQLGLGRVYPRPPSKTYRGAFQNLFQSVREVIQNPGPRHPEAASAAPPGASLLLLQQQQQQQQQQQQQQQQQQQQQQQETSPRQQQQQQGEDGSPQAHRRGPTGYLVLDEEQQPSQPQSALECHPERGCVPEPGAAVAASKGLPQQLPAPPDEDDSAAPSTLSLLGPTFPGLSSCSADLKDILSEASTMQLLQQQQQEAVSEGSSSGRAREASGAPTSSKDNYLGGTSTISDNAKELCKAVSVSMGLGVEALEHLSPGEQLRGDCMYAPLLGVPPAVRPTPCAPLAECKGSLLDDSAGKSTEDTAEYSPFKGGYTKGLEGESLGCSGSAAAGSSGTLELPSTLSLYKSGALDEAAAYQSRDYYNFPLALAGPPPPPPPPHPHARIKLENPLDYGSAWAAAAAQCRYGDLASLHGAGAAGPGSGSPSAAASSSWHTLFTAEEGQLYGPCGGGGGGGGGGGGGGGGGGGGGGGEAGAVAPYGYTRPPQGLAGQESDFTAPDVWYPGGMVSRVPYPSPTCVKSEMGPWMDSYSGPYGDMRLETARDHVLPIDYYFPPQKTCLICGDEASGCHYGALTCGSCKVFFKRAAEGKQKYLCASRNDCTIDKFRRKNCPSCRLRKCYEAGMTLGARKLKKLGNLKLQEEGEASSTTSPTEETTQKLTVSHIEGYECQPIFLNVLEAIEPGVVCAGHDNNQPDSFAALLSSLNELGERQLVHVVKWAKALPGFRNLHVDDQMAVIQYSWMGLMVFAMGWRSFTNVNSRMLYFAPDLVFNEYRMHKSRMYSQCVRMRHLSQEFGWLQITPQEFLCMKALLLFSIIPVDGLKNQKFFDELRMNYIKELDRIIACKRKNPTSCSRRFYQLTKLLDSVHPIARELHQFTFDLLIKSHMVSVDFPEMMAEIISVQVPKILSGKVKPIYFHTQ
Method: The compounds ability to antagonize the effects of androgen on the androgen receptor were determined in a whole cell assay as described immediately below.
This cell line is a stable transfected cell line with MDA-MB453 cell background (a human breast tumor cell line expressing androgen receptor). A MMTV minimal promoter containing ARE was first cloned in front of a firefly luciferase reporter gene. Then the cascade was cloned into transfection vector pUV120puro. […] Puromycin resistant stable cell line was selected.
Plating medium: DMEM (phenol red free), 10% charcoal treated HyClone serum, 1% L-glutamine
Assay medium: DMEM (phenol red free), 1% charcoal treated HyClone serum, 1% L-glutamine, and 1% penicillin/streptomycin
Assay procedure: • 1. Cells are maintained in culture medium, splitting cells when they reach 80-90% confluence • 2. To test compounds, 10,000 cells/well are plated to opaque 96 cell culture plate in 100 ul/well plating medium, culture for overnight at 37° C. in cell culture incubator • 3. […] Add 10 ul/well freshly prepared DHT (final concentration at […]) to each well, incubate at 37° C. for 17 hr (overnight) • 5.
The results are reported as the mean of multiple tests as described below (the numbers of tests are indicated in the footnote). N.D. denotes that the compound was not tested.

[2] = target: T2, hAR (human androgen receptor) (Homo sapiens, UniProt P10275); test: Competitive hAR binding assay with 3H-DHT tracer
T2 construct: made in house; host or cells: baculovirus/Sf9 insect cells (crude extract)
T2 sequence (P10275 1-920): T1 sequence (P10275 1-920 Q868H) with H868Q
Method: The description below describes how the assay was carried out.
Competitive binding analysis was performed on baculovirus/Sf9 generated hAR extracts in the presence or absence of different concentrations of test agent and a fixed concentration of ^3H-dihydrotestosterone (3H-DHT) as tracer. […] Subsequently, the binding reactions are washed three times to completely remove excess unbound ^3H-DHT. hAR bound ^3H-DHT levels are determined in the presence of compounds (i.e. competitive binding) and compared to levels bound when no competitor is present (i.e. maximum binding). Compound binding affinity to the hAR is expressed as the concentration of compound at which one half of the maximum binding is inhibited.

[3] = read-out: AR Cell IC50; MDA-MB453-MMTV clone 54-19, inhibition of DHT induced luciferase, 17 hr; mean of multiple tests
[4] = MDA-MB453-MMTV clone 54-19, inhibition of DHT induced luciferase, 17 hr; mean of multiple tests; read-out: AR Cell IC50
[5] = baculovirus/Sf9 hAR extract, 1 nM 3H-DHT, one hour at 4° C, mean of multiple tests, read-out: AR Binding IC50

## CSc1ccccc1Oc1ccc(C#N)c(Cl)c1 [Example 3, 2-Chloro-4-(2-methylsulfanyl-phenoxy)-benzonitrile]
[1]; [3]
  IC50: < 0.32 nM
[2]
  IC50: 47 nM

## N#Cc1ccc(Oc2ccccc2C(N)=O)cc1Cl [Example 8, 2-(3-Chloro-4-cyano-phenoxy)-benzamide]
[1]; [4]
  IC50: > 1000 nM
[2]; [5]
  IC50: 222 nM

## COc1ccccc1Oc1ccc(C#N)cc1Cl [Example 10, 3-Chloro-4-(2-methoxy-phenoxy)-benzonitrile]
[1]; [4]
  IC50: 319 nM
[2]
  IC50: 29 nM

## Cc1cc(C)c(Oc2ccc(C#N)cc2Cl)c(C)c1 [Example 15, 3-Chloro-(2,4,6-trimethyl-phenoxy)-benzonitrile]
[1]; [4]
  IC50: > 1000 nM
[2]
  IC50: 16 nM

## Cc1cccc(C)c1Oc1ccc(C#N)cc1Cl [Example 16, 3-Chloro-4-(2,,6-dimethyl-phenoxy)-benzonitrile]
[1]; [4]
  IC50: 161 nM
[2]
  IC50: 16 nM

## CCCc1ccccc1Oc1ccc(C#N)cc1Cl [Example 17, 3-Chloro-4-(2-propyl-phenoxy)-benzonitrile]
[1]; [4]
  IC50: 861 nM
[2]; [5]
  IC50: 102 nM

## COc1cccc(F)c1Oc1ccc(C#N)cc1Cl [Example 19, 3-Chloro-4-(2-fluoro-6-methoxy-phenoxy)-benzonitrile]
[1]; [3]
  IC50: 52 nM
[2]
  IC50: 28 nM

## N#Cc1ccc(Oc2ccccc2C(F)(F)F)c(Cl)c1 [Example 20, 3-Chloro-4-(2-trifluoromethyl-phenoxy)-benzonitrile]
[1]; [3]
  IC50: 51 nM
[2]; [5]
  IC50: 253 nM

## CCc1ccccc1Oc1ccc(C#N)cc1Cl [Example 23, 3-Chloro-(2-ethyl-phenoxy)-benzonitrile]
[1]; [4]
  IC50: > 1000 nM
[2]; [5]
  IC50: 227 nM

## N#Cc1ccc(Oc2ccc(F)cc2F)c(Cl)c1 [Example 25, 3-Chloro-4-(2,4-difluoro-phenoxy)-benzonitrile]
[1]; [4]
  IC50: 792 nM
[2]; [5]
  IC50: 371 nM

## COc1cccc(OC)c1Oc1ccc(C#N)cc1Cl [Example 26, 3-Chloro-4-(2,6-dimethoxy-phenoxy)-benzonitrile]
[1]; [3]
  IC50: 54 nM
[2]; [5]
  IC50: 106 nM

## CCOc1cc(C)ccc1Oc1ccc(C#N)cc1Cl [Example 30, 3-Chloro-4-(2-ethoxy-4-methyl-phenoxy)-benzonitrile]
[1]; [4]
  IC50: 869 nM
[2]; [5]
  IC50: 42 nM

## N#Cc1ccc(Oc2cccc3c2CCCC3)cc1Cl [Example 32, 2-Chloro-4-(5,6,7,8-tetrahydro-naphthalen-1-yloxy)-benzonitrile]
[1]; [4]
  IC50: 473 nM
[2]
  IC50: 94 nM

## COc1ccc(C)cc1Oc1ccc(C#N)c(Cl)c1 [Example 33, 2-Chloro-4-(2-methoxy-5-methyl-phenoxy)-benzonitrile]
[1]; [3]
  IC50: 42 nM
[2]; [5]
  IC50: 232 nM

## CCc1cccc(Oc2ccc(C#N)c(Cl)c2)c1 [Example 34, 2-Chloro-4-(3-ethyl-phenoxy)-benzonitrile]
[1]; [4]
  IC50: 924 nM
[2]; [5]
  IC50: 181 nM

## CCc1ccccc1Oc1ccc(C#N)c(Cl)c1 [Example 35, 2-Chloro-4-(2-ethyl-phenoxy)-benzonitrile]
[1]; [4]
  IC50: 360 nM
[2]
  IC50: 20 nM

## N#Cc1ccc(Oc2ccc(F)cc2F)cc1Cl [Example 36, 2-Chloro-4-(2,4-difluoro-phenoxy)-benzonitrile]
[1]; [4]
  IC50: 144 nM
[2]
  IC50: 52 nM

## COc1cccc(Oc2ccc(C#N)c(Cl)c2)c1 [Example 37, 2-Chloro-4-(3-methoxy-phenoxy)-benzonitrile]
[1]; [4]
  IC50: 139 nM
[2]; [5]
  IC50: 114 nM

## COc1cccc(OC)c1Oc1ccc(C#N)c(Cl)c1 [Example 38, 2-Chloro-4-(2,6-dimethoxy-phenoxy)-benzonitrile]
[1]; [3]
  IC50: 19 nM
[2]; [5]
  IC50: 249 nM

## CC(C)c1ccccc1Oc1ccc(C#N)c(Cl)c1 [Example 39, 2-Chloro-4-(2-isopropyl-phenoxy)-benzonitrile]
[1]; [4]
  IC50: 254 nM
[2]
  IC50: 43 nM

## N#Cc1ccc(Oc2cccc3ccccc23)cc1Cl [Example 40, 2-Chloro-4-(naphthalen-1-yloxy)-benzonitrile]
[1]; [3]
  IC50: 90 nM
[2]
  IC50: 31 nM

## Cc1cccc(Oc2ccc(C#N)c(Cl)c2)c1 [Example 41, 2-Chloro-4-m-tolyloxy-benzonitrile]
[1]; [4]
  IC50: 120 nM
[2]
  IC50: 86 nM

## COc1ccccc1Oc1ccc(C#N)c(Cl)c1 [Example 42, 2-Chloro-4-(2-methoxy-phenoxy)-benzonitrile]
[1]; [4]
  IC50: 387 nM
[2]
  IC50: 2 nM

## C=CCc1cccc(C)c1Oc1ccc(C#N)c(Cl)c1 [Example 44, 4-(2-Allyl-6-methyl-phenoxy)-2-chloro-benzonitrile]
[1]; [4]
  IC50: 282 nM
[2]
  IC50: 79 nM

## Cc1ccc(Oc2ccc(C#N)c(Cl)c2)c(C)c1 [Example 45, 2-Chloro-4-(2,4-dimethyl-phenoxy)-benzonitrile]
[1]; [4]
  IC50: 721 nM
[2]
  IC50: 25 nM

## N#CCCc1ccc(Oc2ccc(C#N)c(Cl)c2)cc1 [Example 46, 2-Chloro-4-[4-(2-cyano-ethyl)-phenoxy]-benzonitrile]
[1]; [4]
  IC50: 197 nM
[2]; [5]
  IC50: 304 nM

## COc1cc(C)ccc1Oc1ccc(C#N)c(Cl)c1 [Example 47, 2-Chloro-4-(2-methoxy-4-methyl-phenoxy)-benzonitrile]
[1]; [4]
  IC50: > 1000 nM
[2]
  IC50: 4 nM

## CCC(C)c1ccccc1Oc1ccc(C#N)c(Cl)c1 (centres unmarked) [Example 48, 4-(2-sec-Butyl-phenoxy)-2-chloro-benzonitrile]
[1]; [4]
  IC50: > 1000 nM
[2]; [5]
  IC50: 184 nM

## Cc1ccc(C(C)C)c(Oc2ccc(C#N)c(Cl)c2)c1 [Example 49, 2-Chloro-4-(2-isopropyl-5-methyl-phenoxy)-benzonitrile]
[1]; [4]
  IC50: 784 nM
[2]
  IC50: 79 nM

## Cc1cc(C)c(Oc2ccc(C#N)c(Cl)c2)c(C)c1 [Example 50, 2-Chloro-4-(2,4,6-trimethyl-phenoxy)-benzonitrile]
[1]; [4]
  IC50: 214 nM
[2]
  IC50: 22 nM

## C=CCc1ccccc1Oc1ccc(C#N)c(Cl)c1 [Example 51, 4-(2-Allyl-phenoxy)-2-chloro-benzonitrile]
[1]; [4]
  IC50: 252 nM
[2]
  IC50: 62 nM
